Test results from patent US20220016241A1, “COMPOSITIONS AND METHODS FOR REDUCING ANTIGEN-SPECIFIC IMMUNOGENICITY” (The Research Foundation for The State University of New York, priority 2013, published 2022).

Tested on: anti-FVIII antibody titers
Assay: FVIII-specific tolerance with OPLS, OPDS or Dex, rechallenge with free FVIII (FIG. 11)
Conditions: s.c. co-administration with FVIII, then s.c. free FVIII

Compound: N[C@@H](COP(=O)(O)O)C(=O)O [OPLS, O-Phospho-L-Serine]
- FVIII-specific hypo-responsiveness upon rechallenge: hypo-responsiveness
